The source made the active and inactive calls.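 The calls were made as follows: active = EC50 no more than a set limit of log units above the highest dose; inactive = the rest.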
Molecular target: S. pyogenes SKKanGAS, kanamycin survival, BacTiterGlo, 6 h
Test: S. pyogenes SKKanGAS kanamycin growth inhibitors – SKKanGAS strain, luminescence, dose confirmation, streptokinase promoter inhibitor project, dose response (AID 1902);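 also: lower survival reflects blocked streptokinase promoter driving kanamycin resistance gene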

Row | SMILES | EC50
1 | CC1Oc2cc3oc4c(O)c(O)ccc4c(=O)c3c(O)c2C1(C)C (configuration not stated) | 5.89 µM
2 | CCCCCCn1c(=O)c(C(=O)N/N=C/c2cccc(F)c2)c(O)c2ccccc21 | 2.11 µM
3 | COc1cccc2c1C(=O)c1c(O)c3c(c(O)c1C2=O)C[C@@](O)(C(=O)CO)C[C@@H]3O[C@H]1C[C@H](N)[C@H](O)[C@H](C)O1 | 1.15 µM
4 | S=C(NCCC(c1ccccc1)c1ccccc1)Nc1cccc(Cl)c1 | 5.82 µM
5 | CCC/C=C(\CCC)C(NS(=O)(=O)c1ccc(C(F)(F)F)cc1)c1ccccc1 (configuration not stated) | 3.48 µM
6 | Cc1c(C)n(Cc2ccc(F)cc2)c2ccc(C(=O)N3CCN(c4ccccn4)CC3)cc12 | 6.11 µM
7 | c1ccc(-n2c3ccccc3c3ccccc32)cc1 | 4.4 µM
8 | O=C(CCCN1C(=O)/C(=C\c2cccs2)SC1=S)Nc1cc([N+](=O)[O-])ccc1O | 5.04 µM
9 | O=C(Nc1ccc(Cl)c(Cl)c1)Nc1ccon1 | 14.5 µM
10 | Cc1[nH]n2c(=O)cc(C(C)(C)C)nc2c1-c1ccccc1 | 2.77 µM
11 | c1ccc(-c2nc(C3CCCCC3)c3ccccc3n2)cc1 | 3.87 µM
12 | COc1cccc(/C=N/n2c(N)nc3ccccc32)c1OC | 5.93 µM
13 | S=C(NCc1cccs1)Nc1cc(Cl)cc(Cl)c1 | 7.18 µM
14 | CC(C)OC(=O)c1c(NS(=O)(=O)c2ccccc2)sc2c1CCCC2 | 3.88 µM
15 | COc1ccc(-n2nc3cc(C)c(NC(=O)C(C)C)cc3n2)cc1 | > 15 µM (inactive)
16 | CCOC(=O)C1=NN(C(=O)c2ccc(OC)cc2)C(O)(c2ccc(Cl)cc2)C1 (configuration not stated) | 6 µM
17 | Cc1onc(-c2ccccc2)c1C(=O)NNC(=S)NC(=O)c1ccc(Cl)cc1Cl | 0.615 µM
18 | COc1cccc(C2CC(c3cccs3)=NN2C(=O)CSc2nc3c(cnn3-c3ccc(F)cc3)c(=O)[nH]2)c1OC (configuration not stated) | 2.03 µM
19 | CN1c2ccccc2C(C)(C)C12C=Nc1c(ccc3ccccc13)O2 (configuration not stated) | 2.16 µM
20 | Oc1ccc(Br)cc1/C=N/Nc1nc(N2CCCCC2)nc(N2CCOCC2)n1 | 3.81 µM
21 | Nc1nonc1-n1nnc(C(=O)N/N=C/c2cc(Br)ccc2O)c1CNc1ccccc1 | 0.394 µM
22 | Cc1cccc2sc(NNC(=O)c3ccc(S(=O)(=O)N4CCc5ccccc5C4)cc3)nc12 | 0.368 µM
23 | CC(C)(C)c1ccc(C(=O)N/N=C/c2ccccn2)cc1 | 3.3 µM
24 | O=C(O)c1ccc(N/N=C/c2ccc(OC(=O)c3cccc(Cl)c3)cc2)cc1 | 1.4 µM
25 | O=c1[nH]c(CN2CC=C(c3ccccc3)CC2)nc2scc(-c3ccccc3)c12 | 3.17 µM
26 | Cc1nc(Nc2cnc(/C=C/c3cc(C(=O)Nc4cccc(C(F)(F)F)c4)ccc3C)cn2)cc(N2CCNCC2)n1 | 6.36 µM

Row | SMILES | EC50
27 | Cc1cccc(NC(=O)C2SC(=Nc3c(C)cccc3C)C(C(=O)N3CCOCC3)=C2N)c1 (configuration not stated) | 2.44 µM
28 | COc1cc(C)ccc1NC(=O)Cc1csc(NC(=O)Nc2ccccc2OC)n1 | 15.7 µM
29 | Oc1ccccc1N=Nc1nc(-c2ccccc2)c(-c2ccccc2)[nH]1 | 0.303 µM
30 | CCOc1ccc(C)cc1S(=O)(=O)NC1CCCCCC1 | > 15 µM (inactive)
31 | Cc1noc(NS(=O)(=O)c2ccc(NC(=O)c3oc4ccc(Cl)cc4c3C)cc2)c1C | 6.63 µM
32 | O=C(Nc1ccccc1C(=O)Nc1nnc(C(F)(F)F)s1)c1ccccc1Cl | 1.34 µM
33 | CCCOc1ccc(C(=O)NNC(=S)NC(=O)c2ccccc2[N+](=O)[O-])cc1 | 1.8 µM
34 | CC1=Nc2ccccc2/C1=C\c1nc(-c2ccc(F)cc2)oc1O | 7.57 µM
35 | Cc1ccc(-n2sc3ccccc3c2=O)cc1 | 1.27 µM
36 | O=c1oc2ccccc2c(O)c1C(c1ccc([N+](=O)[O-])cc1)c1c(O)c2ccccc2oc1=O | 6.3 µM
37 | O=C(CCl)c1ccc(Cc2ncc(C(F)(F)F)cc2Cl)s1 | 3.69 µM
38 | CC(C)c1c(C(=O)N/N=C/c2cccc(OCc3ccc(F)cc3)c2)nnn1-c1nonc1N | 5.19 µM
39 | Cc1ccnc(NC(=S)N2CCN(c3cccc(C(F)(F)F)c3)CC2)c1 | 1.65 µM
40 | CC(/C=C/c1ccc(N(C)C)cc1)=N/N=C1/NC(=O)CC(C(=O)Nc2ccc(Cl)cc2)S1 (configuration not stated) | 2.38 µM
41 | S=c1[nH]nc(-c2cc(-c3ccccc3)n[nH]2)n1/N=C/c1ccc(Cl)cc1 | 8.67 µM
42 | O=C(Nc1nnc(-c2ccncc2)o1)c1ccc(Br)s1 | 3.27 µM
43 | CCN(CC)c1ccc(C(=O)OCc2cc(=O)oc3cc(O)ccc23)cc1 | 15.3 µM
44 | Cc1cc(-c2csc3nc[nH]c(=S)c23)cc(C)c1C | 1.67 µM
45 | COc1cccc(/C=N/Nc2ccc([N+](=O)[O-])cn2)c1O | 0.637 µM
46 | CC1=NN(/C(=N\c2nnc(C)s2)Nc2ccc(C(C)(C)C)cc2)[C@H](c2ccc(C)cc2)S1 | 7.14 µM
47 | O=C(Nc1nc(-c2ccccn2)cs1)c1ccc(S(=O)(=O)N2CCCCC2)cc1 | 1.48 µM
48 | CCOC(=O)C1=C(O)c2ccccc2C(=O)/C1=C\c1ccc(CC)cc1 | 8.49 µM
49 | COc1ccc(-c2oc(NC(=O)CCl)c(C#N)c2-c2ccc(OC)cc2)cc1 | 3.11 µM
50 | Cc1ccc(S(=O)(=O)N(C)CC(=O)N2CC(C)OC(C)C2)cc1 (configuration not stated) | > 15 µM (inactive)
51 | COc1ccc(CN2C(=O)c3ccccc3C(/C=N\OCc3ccc(C)cc3)C2=O)cc1 (configuration not stated) | 1.29 µM
52 | CCN(CC)c1ccc(/C=N/NC(=O)CCC(=O)NCc2ccccc2)c(O)c1 | 3.35 µM

Row | SMILES | EC50
53 | Cc1nc(N)sc1N=Nc1ccc(F)cc1 | 2.13 µM
54 | CCCCCCCN1N=C(C)C(C(=O)c2ccccc2)C1=O (configuration not stated) | 1.33 µM
55 | Cc1ccc(S(=O)(=O)CNC(=S)c2ccc3ccccc3c2)cc1 | 4.18 µM
56 | CCN(c1ccc(OC)cc1)S(=O)(=O)c1nnc(NC(=O)c2ccccc2Cl)s1 | 3.31 µM
57 | Cc1ccc(N=Nc2ccc(O)c(P(=O)(c3ccccc3)c3ccccc3)c2)cc1 | 3.36 µM
58 | COc1cccc(CC(=O)OCC(=O)Nc2nnc(-c3ccccc3)o2)c1 | 4.58 µM
59 | Cc1ccc2cc(CN(Cc3cccs3)C(=O)c3ccco3)c3nnnn3c2c1C | 4.71 µM
60 | S=c1[nH]nc(-c2cccs2)n1/N=C/c1cn(-c2ccccc2)nc1-c1ccccc1 | 7.78 µM
61 | O=S(=O)(Nc1cccc(-c2ccc(N3CCOCC3)nn2)c1)c1ccc(Cl)c(Cl)c1 | 9.66 µM
62 | Cc1ccccc1OCC(=O)Nc1ccccc1N1CCC(C)CC1 | 7.48 µM
63 | Cc1ccccc1CN1CCCN(Cc2ccc(Cl)cc2)S1(=O)=O | 4.05 µM
64 | Cc1ccc2nc(-c3ccc(NS(=O)(=O)c4ccc(F)cc4)cc3)sc2c1 | 3.31 µM
65 | CCOc1cccc(/C=N/NC(=S)Nc2ccccc2[N+](=O)[O-])c1O | 0.095 µM
66 | Cc1[nH]n(-c2ccc(Br)cc2)c(=O)c1/C=N/NC(=O)c1ccccc1 | 0.428 µM
67 | Cc1ccc2nc(N3C(=O)C(O)=C(C(=O)c4cc5ccccc5o4)C3c3cccs3)sc2c1 (configuration not stated) | 1.22 µM
68 | CCCC(Oc1ccc(Br)cc1)c1nc2c3cc(OC)c(OC)cc3nc(=S)n2[nH]1 (configuration not stated) | 0.145 µM
69 | CCOc1ccc(-n2c(O)c(/C=N/NC(=O)C3COc4ccccc4O3)c3ccccc3c2=O)cc1 (configuration not stated) | 2.34 µM
70 | O=C(O)c1ccc(N/N=C/c2ccc(-c3cccc(Cl)c3)o2)cc1 | 6.17 µM
71 | Cc1ccc(C(=O)NC(=S)N(C)C2CCCCC2)cc1Br | 2.96 µM
72 | CC(/C=C/c1ccc(N(C)C)cc1)=N\N=C1\NC(=O)CC(C(=O)Nc2ccccc2)S1 (configuration not stated) | 3.16 µM
73 | Nc1[nH]n2c(=O)cc(-c3ccccc3)nc2c1N=Nc1ccc2c(c1)OCO2 | 2.25 µM
74 | CCC(C)Sc1cc(-c2nc3ccc(C)cn3c2NCc2ccccc2)ccc1OC (configuration not stated) | 1.42 µM
75 | CC(NC(=O)Nc1nnc(C(F)(F)F)s1)(C(F)(F)F)C(F)(F)F | 2.97 µM
76 | O=C1C(=O)c2ccccc2-c2ccccc21 | 1.26 µM
77 | N#C/C(=C(/O)COc1ccccc1)c1nc2ccccc2s1 | 14.5 µM

From PubChem BioAssay AID1902 (Broad Institute, 2009)
